“Also recorded” adds a separate entry of the source. Square brackets hold non-standard residues; d marks the D form. Peptide text beside a SMILES is read from it. * marks the point of attachment. 5FAM = O=C1OC2(c3ccc(O)cc3Oc3cc(O)ccc32)c2ccc(C(=O)*)cc21
Assays:
Aβ1–42 fibrils = biological target: T1, Aβ1–42 fibrils (Homo sapiens, UniProt P05067); assay: ELISA, compound binding to Aβ1–42 fibrils; settings: 10 µg/ml compound; optical density after pNPP incubation; value of one single experiment only
T1 construct: Aβ1–42 was dissolved in hexafluoroisopropanol (HFIP)
Method: Aβ1–42 peptide film was prepared from lyophilized powder (Bachem). The powder was reconstituted in HFIP to a final concentration of 1 mM, sonicated for 15 min at room temperature (RT), agitated overnight (ON), and aliquoted into non-siliconized microcentrifuge tubes (12 µl corresponding to 55 µg). The HFIP was evaporated under a stream of argon. The resulting peptide film was vacuum dried for 10 min and stored at -80°C. For direct use as peptide film, an aliquot of Aβ1–42 peptide film was reconstituted with 0.54% dimethylsulphoxide (DMSO) in phosphate buffered saline (PBS) to obtain a final concentration of 10 µg/ml and then used for the ELISA as described below. To prepare fibrils, 55 µg aliquot of peptide film was dissolved in 55 µl of 50 mM Tris-HCl, pH 7.4 and incubated at 37°C for five days. Next, the sample was centrifuged (10’000 rpm for 5 min) and the pellet was diluted in 50 mM Tris-HCl, pH 7.4.
Aβ1–42 peptide preparations were diluted in 0.05 M bicarbonate-carbonate buffer pH 9.6, to the final concentration of 10 µg/ml and coated onto ELISA plates (MaxiSorp, Nunc). After blocking (PBS; 0.05% Tween; 1% BSA), plates were incubated with 2- or 3-fold dilutions of D-compounds (starting concentration: 10 µg/ml) and incubated for 2 h at 37°C. Plates were then washed and incubated for 2 h at 37°C with the detection antibody Rabbit-a-fluorescein isothiocyanate-AP (Sigma; 1∶10’000 dilution) followed by the incubation for 2.5 h at room temperature (RT) with 1 mg/ml of phosphatase substrate (pNPP, Sigma). The absorbance signal was read at 405 nm wavelength using a Tecan plate reader (Tecan Group Lt, Männedorf, Switzerland).
ELISA plates (MaxiSorp, Nunc) were coated with anti-Aβ antibody 6E10 (Covance) at a concentration of 5 µg/ml. Either monomeric Aβ1–42 peptide film (mainly monomeric) or Aβ1–42 fibrils, which were prepared as described above, were diluted in PBS to the final concentration 10 µg/ml and mixed with 10-fold dilutions of D-peptide compounds in Eppendorf tubes (starting concentration of D-peptide compounds: 10 µg/ml). The tubes were incubated for 2 h at 37°C. Next, samples were distributed onto the ELISA plate and kept for 2 h at 37°C. Plates were washed and incubated for 2 h at 37°C with the detection antibody Rabbit-a-fluorescein isothiocyanate-AP (Sigma; 1∶10′000 dilution) following the incubation overnight (ON) at RT with 1 mg/ml of phosphatase substrate (pNPP, Sigma). The absorbance signal was read at 405 nm wavelength using the Tecan plate reader (Tecan Group Ltd, Männedorf, Switzerland).
To verify the SPR results, ELISA was employed to assay the interaction of the ACI-80 derivatives ACI-80-Kϕ, ACI-81-Kϕ, ACI-82-Kϕ, ACI-83-Kϕ, ACI-84-Kϕ, ACI-85-Kϕ, ACI-86-Kϕ, ACI-87-Kϕ, [^19F]-ACI-87-Kϕ, ACI-88-Kϕ, [^19F]-ACI-88-Kϕ, ACI-89-Kϕ, [^19F]-ACI-89-Kϕ) with Aβ1–42 fibrils and Aβ peptide film in solution containing mostly monomers and smaller oligomers (Table 4). To avoid any bias by possible conformational influences the ELISA has been carried out in two versions, once with immobilized antibody and once with immobilized Aβ1–42 as described in the methods section. Both assays yielded similar results and confirmed each other. […] Panels A and B in Figure 2 show the results for binding to Aβ1–42 fibrils and panels C and D in Figure 2 show the results for binding to freshly prepared Aβ1–42 peptide film, which contains mostly monomeric Aβ. In Table 4, the performance of the peptides is expressed relative to that of ACI-80-Kϕ.

[1] = biological target: T2, Aβ plaques in brain sections of transgenic APP (V717I) x PS1 (A246E) mice (Homo sapiens, UniProt P05067); assay: Ex vivo staining of mouse brain slices by FITC labeled compounds; settings: for staining / recognition of Aβ plaques: 0.01 mg/ml ϕ-labeled compound, 2 h, 10 µm cryostat sections; for staining / recognition of Aβ plaques / background signal / staining pattern: fluorescence microscopy; for background signal: 0.01 mg/ml; for overlay with 6E10 anti-Aβ staining: co-staining with 6E10 (2 µg/ml) and DAPI, triple overlay
T2 construct: triple image overlay of respective stains reveal that the ϕ-compounds identify plaques; from tissue; host or cells: brain cryosections of APP (V717I) x PS1 (A246E) transgenic mice
Method: In vitro tissue section staining was performed according to previously described protocols with slight modifications. Mouse brains were obtained from male transgenic (tg) APP (London mutation V717l) x PS1 (A246E) mice aged 13–21 months and from female wild type (wt) mice aged 9–10 months. The mice were anesthetized and transcardially perfused with saline. The brains were removed and snap frozen. 10 µm thick sagittal cryostat sections through the whole mouse brain were produced and mounted onto glass slides. ϕ-labeled compounds were applied to investigate binding. Thus, the slides were thawed, washed in PBS and fixed in 4% paraformaldehyde (20 min at RT) just before incubation with ϕ-labeled compounds. One series of sections was treated only with fluorescent compounds (0.01 mg/ml, incubation time 2 h) while another series of sections were incubated with anti-Aβ antibody 6E10 at 1∶500 dilution (SIG-39320, Covance; final antibody concentration was 2 µg/ml) in addition to ϕ-labeled compounds (0.01 mg/ml). The slices were washed in PBS. The sections incubated with ϕ-labeled compound and 6E10 antibody were further incubated for 2 h at RT with Goat-anti-Mouse IgG1– AlexaFluor 555 (A21127, Invitrogen, 1∶1000 dilution) and washed with PBS. Finally, all sections were counterstained with 4’–6-Diamidino-2-phenylindole (DAPI, 32670, Sigma, incubation 5 min at RT) for the visualization of cell nuclei. The slides were mounted using Prolong Gold Antifade mounting medium (P36930, Invitrogen) and coverslipped.
The tissues were analyzed using a fluorescent Zeiss Axioscope 2 Plus microscope using the AxioVision 4 image analysis software.
A further series of slices was stained using a primary anti-fluorescein isothiocyanate antibody combined with alkaline phosphatase reaction for visualization of ϕ-labeled peptides. Briefly, the sections were treated with blocking solution (10% normal goat serum (NGS), 0.25% Triton X-100 in PBS for 1 h at RT) and incubated with primary antibody (rabbit-anti-FITC; Invitrogen) at a dilution of 1∶500. The sections were then washed and incubated for 2 h at RT with the secondary antibody goat-anti-rabbit-alkaline phosphatase (Sigma) at a dilution of 1∶100. After washing, the slides were incubated with BCIP/NBT substrate (Sigma) for 3 min, washed, dehydrated and mounted using Eukitt mounting medium.

| binding value, binding Aβ1–42 fibrils (Aβ1–42 fibrils) | background signal [1] | plaque detection via anti-fluorescein isothiocyanate antibody and alkaline phosphatase ([1]; tg mouse brain slices immersed in ϕ-peptide, BCIP/NBT chromogenic detection, light microscope) | Structure (SMILES) | staining / recognition of Aβ plaques [1] | overlay with 6E10 anti-Aβ staining [1] | staining pattern [1] |
| --- | --- | --- | --- | --- | --- | --- |
| *0.93 | high background fluorescence | – | CC[C@@H](C)[C@@H](NC(=O)[C@@H](Cc1c[nH]cn1)NC(=O)[C@@H](CCCNC(=N)N)NC(=O)[C@@H](Cc1ccc(O)cc1)NC(=O)[C@@H](Cc1c[nH]cn1)NC(=O)[C@@H](CO)NC(=O)[C@H](N)CCC(N)=O)C(=O)N[C@H](CO)C(=O)N1CCC[C@@H]1C(=O)N[C@H](C)C(=O)N[C@H](CCC(N)=O)C(=O)N[C@H](CCCCN)C(=O)N[C@H](CCCCNC(=O)c1ccc2c(c1)C(=O)OC21c2ccc(O)cc2Oc2cc(O)ccc21)C(=O)O [ACI-87-Kϕ] (H-[dQ][dS][dH][dY][dR][dH][dI][dS][dP][dA][dQ][dK][dK](5FAM)-OH; N-terminus and C-terminus assumed) | readily recognized amyloid plaques | nearly no overlay with 6E10 anti-Aβ was detected | – |
| *1.78 | lowest background signal of all peptides | – | CC[C@@H](C)[C@@H](NC(=O)[C@@H](Cc1c[nH]cn1)NC(=O)[C@@H](CCCNC(=N)N)NC(=O)[C@@H](Cc1ccc(O)cc1)NC(=O)[C@@H](Cc1c[nH]cn1)NC(=O)[C@H](N)CO)C(=O)N[C@H](CO)C(=O)N1CCC[C@@H]1C(=O)N[C@H](C)C(=O)N[C@H](CCC(N)=O)C(=O)N[C@H](CCCCN)C(=O)N[C@H](CCCCNC(=O)c1ccc2c(c1)C(=O)OC21c2ccc(O)cc2Oc2cc(O)ccc21)C(=O)O [ACI-88-Kϕ] (H-[dS][dH][dY][dR][dH][dI][dS][dP][dA][dQ][dK][dK](5FAM)-OH; N-terminus and C-terminus assumed) | stained plaques most intensively; also recorded: readily recognized amyloid plaques | match 6E10 anti-Aβ staining quite well; also recorded: good overlap with 6E10 Aβ staining | stained the core of plaques |
| *1.49 | – | abundant chromogenic deposits | CC[C@@H](C)[C@@H](NC(=O)[C@@H](Cc1c[nH]cn1)NC(=O)[C@@H](CCCNC(=N)N)NC(=O)[C@@H](Cc1ccc(O)cc1)NC(=O)[C@@H](Cc1c[nH]cn1)NC(=O)[C@@H](CO)NC(=O)[C@H]1CCCN1)C(=O)N[C@H](CO)C(=O)N1CCC[C@@H]1C(=O)N[C@H](C)C(=O)N[C@H](CCC(N)=O)C(=O)N[C@H](CCCCN)C(=O)N[C@H](CCCCNC(=O)c1ccc2c(c1)C(=O)OC21c2ccc(O)cc2Oc2cc(O)ccc21)C(=O)O [ACI-89-Kϕ] (H-[dP][dS][dH][dY][dR][dH][dI][dS][dP][dA][dQ][dK][dK](5FAM)-OH; N-terminus and C-terminus assumed) | stained plaques most intensively; also recorded: readily recognized amyloid plaques | match 6E10 anti-Aβ staining quite well | more similar to the one of 6E10 which also stains diffuse Aβ plaques |

— PMC3404088, “Development of a Small D-Enantiomeric Alzheimer’s Amyloid-β Binding Peptide Ligand for Future In Vivo Imaging Applications” (PLoS ONE, 2012)
